Data as given in PMC9250534, “Synthesis and direct assay of large macrocycle diversities by combinatorial late-stage modification at picomole scale” (Nature Communications, 2022).
Numbered stars: 1 amine (or outer) side, 2 acyl side, 3 side chain; on linkers, the order of the positions; unused ones are H or OH. Bridge positions count the residues as written; N and C are the ends. Square brackets hold non-standard residues; d marks the D form. Peptide text beside a SMILES is read from it. * marks the point of attachment. Pyrazinoyl(5-oxo-4H) = O=C(c1c[nH]c(=O)cn1)*; 1,2,3Thiadiazole5CO(4-Me) = Cc1nnsc1C(=O)*; Nicotinoyl(6-OMe) = COc1ccc(C(=O)*)cn1; 2Thenoyl(5-Cl) = O=C(c1ccc(Cl)s1)*; Phenoxyacetyl = O=C(COc1ccccc1)*; Cysteamide = C(CS[*:3])N[*:1]; X3 = O=C(Cc1c[nH]c2ccccc12)*; 3Amb = NCc1cccc(C(=O)O)c1; Isovaleryl = CC(C)CC(=O)*; 2Furoyl = O=C(c1ccco1)*; Mpa = O=C(O)CCS

The compounds below were run against T1, thrombin (Homo sapiens, UniProt P00734) (assay: Thrombin inhibition screen of crude macrocycle reactions (residual thrombin activity, fluorogenic substrate Z-Gly-Gly-Arg-AMC)). Conditions: 10 µM macrocycle concentration; crude reactions, Library 1a-l; scaffold AA1-AA2-AA3 combined with 1-16 or '-'.
T1 construct: consists of two polypeptide chains of 36 (light chain) and 259 amino acid
Assay type: biochemical
Summary of the method: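 Each crude macrocycle (10 μM) was preincubated 10 min at room temperature with thrombin (2 nM final) in Tris-Cl pH 7.4 containing NaCl, MgCl2, CaCl2, 0.1% BSA, 0.01% Triton X-100 and 0.6% DMSO. Z-Gly-Gly-Arg-AMC (50 μM final) was then added. Inhibition came from fluorescence slopes relative to DMSO-only controls.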

| percent residual thrombin activity | Compound |
| --- | --- |
| 111.353% | C[C@H]1NC(=O)CCSSCCNC(=O)[C@H](CCCCNC(=O)c2ccco2)NC(=O)[C@@H]2CCCN2C1=O [a-B1-D1/16] ([Mpa][dA]PK(2Furoyl)-Cysteamide; disulfide 1-C) |
| 107.599% | C[C@H]1NC(=O)CCSSCCNC(=O)[C@H](CCCCNC(=O)c2ccccc2)NC(=O)CCNC1=O [a-B2-D1/1] |
| 102.459% | C[C@H]1NC(=O)CCSSCCNC(=O)[C@H](CCCCNC(=O)c2c[nH]c(=O)cn2)NC(=O)CCNC1=O [a-B2-D1/9] |
| 107.663% | C[C@H]1NC(=O)CCSSCCNC(=O)[C@H](CCCCNC(=O)c2c[nH]c(=O)[nH]c2=O)NC(=O)CCNC1=O [a-B2-D1/11] |
| 107.587% | C[C@H]1NC(=O)CCSSCCNC(=O)[C@H](CCCCNC(=O)c2ccco2)NC(=O)CCNC1=O [a-B2-D1/16] |
| 105.008% | C[C@H]1NC(=O)CCSSCCNC(=O)[C@H](CCCCN)NC(=O)CCNC1=O [a-B2-D1/-] |
| 113.455% | C[C@H]1NC(=O)CCSSCCNC(=O)[C@@H]2CCCN2C(=O)[C@H](CCCCNC(=O)Cc2c[nH]c3ccccc23)NC1=O [a-D1-B1/12] ([Mpa][dA]K(X3)P-Cysteamide; disulfide 1-C) |
| 109.871% | C[C@H]1NC(=O)CCSSCCNC(=O)[C@@H]2CCCN2C(=O)[C@H](CCCCNC(=O)c2ccc(Cl)s2)NC1=O [a-D1-B1/14] ([Mpa][dA]K(2Thenoyl(5-Cl))P-Cysteamide; disulfide 1-C) |
| 113.28% | CC1NC(=O)CCSSCCNC(=O)C2CCCN2C(=O)C(CCCCNC(=O)c2ccco2)NC1=O (centres unmarked) [a-D1-B1/16] ([Mpa]AK(2Furoyl)P-Cysteamide; disulfide 1-C; configuration not given here) |
| 107.784% | C[C@H]1NC(=O)CCSSCCNC(=O)[C@H]2CCCN(C2)C(=O)[C@H](CCCCNC(=O)c2ccccc2)NC1=O [a-D1-B4/1] |
| 108.338% | C[C@H]1NC(=O)CCSSCCNC(=O)[C@H]2CCCN(C2)C(=O)[C@H](CCCCNC(=O)c2c[nH]c(=O)cn2)NC1=O [a-D1-B4/9] |
| 104.737% | C[C@H]1NC(=O)CCSSCCNC(=O)c2cccc(c2)CNC(=O)[C@H](CCCCNC(=O)c2cnccn2)NC1=O [a-D1-B5/2] |
| 99.075% | CC(C)CC(=O)NCCCC[C@@H]1NC(=O)[C@@H](C)NC(=O)CCSSCCNC(=O)c2cccc(c2)CNC1=O [a-D1-B5/8] ([Mpa][dA]K(Isovaleryl)[3Amb]-Cysteamide; disulfide 1-C) |
| 109.062% | COc1ccc(C(=O)NCCCC[C@@H]2NC(=O)[C@@H](C)NC(=O)CCSSCCNC(=O)c3cccc(c3)CNC2=O)cn1 [a-D1-B5/10] |
| 105.866% | C[C@H]1NC(=O)CCSSCCNC(=O)c2cccc(c2)CNC(=O)[C@H](CCCCNC(=O)COc2ccccc2)NC1=O [a-D1-B5/13] |
| 102.51% | C[C@H]1NC(=O)CCSSCCNC(=O)c2cccc(c2)CNC(=O)[C@H](CCCCNC(=O)c2ccc(Cl)s2)NC1=O [a-D1-B5/14] |
| 108.99% | C[C@H]1NC(=O)CCSSCCNC(=O)c2cccc(c2)CNC(=O)[C@H](CCCCN)NC1=O [a-D1-B5/-] ([Mpa][dA]K[3Amb]-Cysteamide; disulfide 1-C) |
| 113.66% | O=C1CCNC(=O)[C@@H](CO)NC(=O)CCSSCCNC(=O)[C@H](CCCCNC(=O)c2cnccn2)N1 [s-B2-D1/2] |

| percent residual thrombin activity | Compound |
| --- | --- |
| 111.495% | Cc1cc(C(=O)NCCCC[C@@H]2NC(=O)CCNC(=O)[C@@H](CO)NC(=O)CCSSCCNC2=O)no1 [s-B2-D1/3] |
| 109.681% | O=C1CCNC(=O)[C@@H](CO)NC(=O)CCSSCCNC(=O)[C@H](CCCCNC(=O)c2c[nH]c(=O)cn2)N1 [s-B2-D1/9] |
| 113.521% | O=C1CCNC(=O)[C@@H](CO)NC(=O)CCSSCCNC(=O)[C@H](CCCCNC(=O)c2c[nH]c(=O)[nH]c2=O)N1 [s-B2-D1/11] |
| 112.63% | O=C(COc1ccccc1)NCCCC[C@@H]1NC(=O)CCNC(=O)[C@@H](CO)NC(=O)CCSSCCNC1=O [s-B2-D1/13] |
| 112.001% | O=C1CCNC(=O)[C@@H](CO)NC(=O)CCSSCCNC(=O)[C@H](CCCCNC(=O)c2ccco2)N1 [s-B2-D1/16] |
| 109.656% | COc1ccc(C(=O)NCCCC[C@@H]2NC(=O)[C@H]3CCCN(C3)C(=O)[C@@H](CO)NC(=O)CCSSCCNC2=O)cn1 [s-B4-D1/10] |
| 112.975% | O=C1CCSSCCNC(=O)[C@H](CCCCNC(=O)c2c[nH]c(=O)[nH]c2=O)NC(=O)[C@H]2CCCN(C2)C(=O)[C@@H](CO)N1 [s-B4-D1/11] |
| 112.216% | O=C(COc1ccccc1)NCCCC[C@@H]1NC(=O)[C@H]2CCCN(C2)C(=O)[C@@H](CO)NC(=O)CCSSCCNC1=O [s-B4-D1/13] |
| 99.656% | CC(C)[C@@H]1NC(=O)CCSSCCNC(=O)[C@@H]2CCCN2C(=O)[C@H](CCCCNC(=O)c2c[nH]c(=O)cn2)NC1=O [v-D1-B1/9] ([Mpa]VK(Pyrazinoyl(5-oxo-4H))P-Cysteamide; disulfide 1-C) |
| 104.488% | COc1ccc(C(=O)NCCCC[C@@H]2NC(=O)[C@H](C(C)C)NC(=O)CCSSCCNC(=O)[C@@H]3CCCN3C2=O)cn1 [v-D1-B1/10] ([Mpa]VK(Nicotinoyl(6-OMe))P-Cysteamide; disulfide 1-C) |
| 99.643% | CC(C)[C@@H]1NC(=O)CCSSCCNC(=O)[C@@H]2CCCN2C(=O)[C@H](CCCCNC(=O)Cc2c[nH]c3ccccc23)NC1=O [v-D1-B1/12] ([Mpa]VK(X3)P-Cysteamide; disulfide 1-C) |
| 104.766% | CC(C)[C@@H]1NC(=O)CCSSCCNC(=O)[C@@H]2CCCN2C(=O)[C@H](CCCCNC(=O)COc2ccccc2)NC1=O [v-D1-B1/13] ([Mpa]VK(Phenoxyacetyl)P-Cysteamide; disulfide 1-C) |
| 97.5215% | CC(C)[C@@H]1NC(=O)CCSSCCNC(=O)[C@@H]2CCCN2C(=O)[C@H](CCCCNC(=O)c2ccc(Cl)s2)NC1=O [v-D1-B1/14] ([Mpa]VK(2Thenoyl(5-Cl))P-Cysteamide; disulfide 1-C) |
| 105.611% | Cc1nnsc1C(=O)NCCCC[C@@H]1NC(=O)[C@H](C(C)C)NC(=O)CCSSCCNC(=O)[C@@H]2CCCN2C1=O [v-D1-B1/15] ([Mpa]VK(1,2,3Thiadiazole5CO(4-Me))P-Cysteamide; disulfide 1-C) |
| 102.421% | CC(C)[C@@H]1NC(=O)CCSSCCNC(=O)[C@@H]2CCCN2C(=O)[C@H](CCCCNC(=O)c2ccco2)NC1=O [v-D1-B1/16] ([Mpa]VK(2Furoyl)P-Cysteamide; disulfide 1-C) |
| 104.378% | O=C(Cc1c[nH]c2ccccc12)NCCCC[C@@H]1NC(=O)[C@@H](Cc2ccc(O)cc2)NC(=O)CCSSCCNC(=O)[C@@H]2CCCN2C1=O [y-D1-B1/12] ([Mpa][dY]K(X3)P-Cysteamide; disulfide 1-C) |
| 104.272% | O=C1CCSSCCNC(=O)[C@@H]2CCCN2C(=O)[C@H](CCCCNC(=O)c2ccco2)NC(=O)[C@@H](Cc2ccc(O)cc2)N1 [y-D1-B1/16] ([Mpa][dY]K(2Furoyl)P-Cysteamide; disulfide 1-C) |
